The values below come from patent publication US12129237B2, “Substituted diaminocarboxamide and diaminocarbonitrile pyrimidines, compositions thereof, and methods of treatment therewith” (SIGNAL PHARMACEUTICALS, LLC, priority 2011, dated 2024).

Some results are limits rather than exact numbers.

In one experiment the target is T1, JNK1 (Homo sapiens, UniProt P45983).
T1 construct: purchased Carna Biosciences
T1 sequence (P45983 whole entry): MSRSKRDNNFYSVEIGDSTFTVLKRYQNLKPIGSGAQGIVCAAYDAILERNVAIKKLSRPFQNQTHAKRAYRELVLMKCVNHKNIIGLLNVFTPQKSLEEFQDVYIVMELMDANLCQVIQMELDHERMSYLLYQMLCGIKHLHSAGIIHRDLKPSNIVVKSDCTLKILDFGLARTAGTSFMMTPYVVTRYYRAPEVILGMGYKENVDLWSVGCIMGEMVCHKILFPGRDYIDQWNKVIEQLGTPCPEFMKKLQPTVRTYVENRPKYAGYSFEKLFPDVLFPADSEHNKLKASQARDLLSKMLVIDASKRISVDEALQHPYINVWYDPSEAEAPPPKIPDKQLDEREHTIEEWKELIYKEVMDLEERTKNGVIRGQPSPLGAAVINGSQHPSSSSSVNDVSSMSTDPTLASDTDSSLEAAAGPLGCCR
Put plainly: JNK1 biochemical assays (one or more of: time resolved fluorescence, Z'-LYTE Cascade, radioactive). To be noted: Table 2; JNK1 IC50 activity level; read-out: Act. Level.
In the case of `CCC(C)CNc1ncc(C(N)=O)c(Nc2ccccc2)n1` (stereo not drawn) [Example B-59, 2-(2-methylbutylamino)-4-(phenylamino)pyrimidine-5-carboxamide], the IC50 was under 200 nM.

The same experiment, now with this note: one or more of the JNK1 biochemical assays; read-out: Act. Level (JNK1 IC50 activity level).
Regarding `C[C@@H]1CC[C@@H](Nc2nc(N[C@H](C)C3CCC3)ncc2C(N)=O)C[C@H]1O` [Example 459, 2-((R)-1-cyclobutylethylamino)-4-((1R,3R,4R)-3-hydroxy-4-methylcyclohexylamino)pyrimidine-5-carboxamide], the IC50 is under 200 nM.
Still for that read-out and setting: the figure for `CCO[C@H]1CC[C@H](Nc2ncc(C(N)=O)c(N[C@H](CC)C3CC3)n2)CC1` [Example 375, 4-((R)-1-cyclopropylpropylamino)-2-((1r,4R)-4-ethoxycyclohexylamino)pyrimidine-5-carboxamide] is under 200 nM; for `C[C@@H]1CC[C@@H](Nc2nc(NC3CCCC3)ncc2C(N)=O)C[C@H]1O` [Example 364, 2-(cyclopentylamino)-4-((1R,3R,4R)-3-hydroxy-4-methylcyclohexylamino)pyrimidine-5-carboxamide] it is under 200 nM; for `CC[C@H](C)Nc1ncc(C(N)=O)c(N[C@@H]2CC[C@@H](C)[C@H](O)C2)n1` [Example 398, 2-(sec-butylamino)-4-((1R,3R,4R)-3-hydroxy-4-methylcyclohexylamino)pyrimidine-5-carboxamide] it is under 200 nM.
For the molecule `CC1(Nc2nc(N[C@H]3CC[C@H](OC(F)F)CC3)ncc2C(N)=O)CCC1` [Example 416, 2-((1r,4r)-4-(difluoromethoxy)cyclohexylamino)-4-(1-methylcyclobutylamino)pyrimidine-5-carboxamide], the IC50 is under 200 nM.
On the same count and under the same terms, then `NC(=O)c1cnc(N[C@@H]2CCC[C@H](O)C2)nc1NC1CCC1` [Example 433, 4-(cyclobutylamino)-2-((1R,3S)-3-hydroxycyclohexylamino)pyrimidine-5-carboxamide], with under 200 nM.
Regarding `CC1(Nc2nc(NC3CCOCC3)ncc2C(N)=O)CCC1` [Example 413, 4-(1-methylcyclobutylamino)-2-(tetrahydro-2H-pyran-4-ylamino)pyrimidine-5-carboxamide], the IC50 was under 200 nM.
Take `CN(C)C(=O)[C@H]1CC[C@H](Nc2ncc(C(N)=O)c(NC3CCC3)n2)CC1` [Example 437, 4-(cyclobutylamino)-2-((1r,4r)-4-(dimethylcarbamoyl)cyclohexylamino)pyrimidine-5-carboxamide]: the IC50 was under 200 nM.
Take `CCC(C)(C)Nc1ncc(C(N)=O)c(N[C@@H]2CC[C@@H](C)[C@H](O)C2)n1` [Example 286, 4-((1R,3R,4R)-3-hydroxy-4-methylcyclohexylamino)-2-(tert-pentylamino)pyrimidine-5-carboxamide]: the IC50 was under 200 nM.
Same read-out and setting: then `CCC(C)(C)Nc1ncc(C(N)=O)c(N[C@@H]2CCCC[C@H](O)C2)n1` [Example 349, 4-((1R,3S)-3-hydroxycycloheptylamino)-2-(tert-pentylamino)pyrimidine-5-carboxamide], with under 200 nM.

The same experiment, now with this note: tested in one or more of the JNK1 biochemical assays; read-out: Act. Level (JNK1 biochemical assay IC50 activity level).
As to `CC(C)Nc1ncc(C(N)=O)c(N[C@@H]2CCC[C@H](O)C2)n1` [Example A-51, 4-((1R,3S)-3-hydroxycyclohexylamino)-2-(isopropylamino)pyrimidine-5-carboxamide], the IC50 was under 200 nM.
Regarding `CCO[C@H]1CC[C@H](Nc2ncc(C(N)=O)c(N[C@H]3CCC[C@H]3O)n2)CC1` [Example A-63, 2-((1r,4S)-4-ethoxycyclohexylamino)-4-((1S,2R)-2-hydroxycyclopentylamino)pyrimidine-5-carboxamide], the IC50 lay in the range of 200 to 800 nM.
For `NC(=O)c1cnc(N[C@H]2CC[C@H](O)CC2)nc1N[C@@H]1CCCOC1` [Example A-193, 2-((1r,4R)-4-hydroxycyclohexylamino)-4-((R)-tetrahydro-2H-pyran-3-ylamino)pyrimidine-5-carboxamide], the IC50 was under 200 nM.
For `CO[C@H]1CC[C@@H](Nc2nc(N[C@H]3CC[C@H](O)C3)ncc2C(N)=O)CC1` [Example A-81, 2-((1S,3S)-3-hydroxycyclopentylamino)-4-((1s,4R)-4-methoxycyclohexylamino)pyrimidine-5-carboxamide], the IC50 was under 200 nM.
